From US8951529B2, “Methods of using small compounds to enhance myeloid derived suppressor cell function for treating autoimmune diseases” (Icahn School of Medicine at Mount Sinai, priority 2009, dated 2015)

Legend:
[1] = tested on: normal CD115+ monocytes; experiment: Normal monocyte assay: Treg induction in co-culture with normal monocytes; format: cell-based, mouse; details: monocytes:CD4 OTII TCR splenocytes 1:4, five days, FIG. 2
Source text: CD115+ MDSCs and normal CD115+ monocytes were isolated from the bone marrows of tumor-bearing and naive Balb/c mice, respectively, and were co-cultured with CD4 OTII TCR transgenic splenocytes at a ratio of 1:4 in the absence or presence of GA, SP600125, or both.
To verify whether the enhancement of suppressive activities (suppression of T-cell proliferation and Treg cell induction) by GA and SP600125 is specific to MDSCs, the Treg cell inducing activity of normal CD115+ monocytes from naive mice was analyzed in the presence of GA and SP600125.

[2] = tested on: TLR 2, 3, and 4 expression in MDSCs; details: microarray analysis
Source text: (§1) Five days later, cells were harvested and stained with anti-CD4-FITC+anti-CD25-APC+anti-Foxp3-PE or isotype controls followed by flow cytometry.

[3] = tested on: MDSCs derived from TRIF KO mice; details: OVA peptide, CD4 OVA TCR splenocytes, 5 days, FIG. 9D
Experimental: TRIF is upstream of IRF-3. MDSCs derived from wild type or TRIF KO mice were cultured in the presence of OVA peptide and CD4 OVA TCR transgenic splenocytes for 5 days. Cells were stained with primary antibody specific for Foxp3, CD4 and CD25 and analyzed by flow cytometry.

[4] = tested on: CD115+ MDSCs; details: FIG. 9B
Experimental: IL-10 and IFN-γ levels in the supernatant were measured by ELISA.

[5] = tested on: MDSCs; experiment: Treg induction by MDSCs with or without LPS; format: cell-based, mouse; details: five days, FIG. 9A
Source text: as §1

[6] = tested on: Gr-1+CD115+ MDSCs; experiment: Prolongation of Treg cell inducing activity of pre-treated MDSCs; format: cell-based, mouse; details: 96 hours pre-treatment, then 5 days co-culture, FIG. 4B
Experimental: It was further investigated whether the delay of MDSC differentiation correlated with the prolongation of the Treg cell inducing activity mediated by MDSCs. Purified Gr-1+CD115+ MDSCs from tumor-bearing mice were left non-treated or treated with SP600125, GA, or a combination of both for 0, 48, and 96 hours followed by co-culture with CD4 HA TCR transgenic for an additional 5 days. […] The percentages of Treg cell subpopulations were determined by flow cytometry.
In the absence of treatment with GA or SP00125, the Treg cell inducing activity of MDSCs gradually waned over the period of 4-day culture (FIG. 4B).

[7] = tested on: IBD; details: GA alone, clinical studies discontinued; cited from earlier work
[8] = tested on: Gr-1+CD115+ MDSCs; experiment: Cytokine production by IFN-γ stimulated MDSCs (ELISA); format: cell-based, mouse; details: IFN-γ stimulation, 24 hours, FIG. 3A
Experimental: Sorted Gr-1+CD115+ MDSCs from tumor-bearing mice were stimulated with IFN-γ in the absence or presence of GA, SP600125, or both. Twenty-four hours after stimulation, culture supernatants were collected and the concentrations of IL-10, TGF-β, IL-6, and IL-23 were determined by ELISA (R&D Systems).
It was next determined whether GA, SP600125, or both exert an effect on cytokine production by MDSCs. Sorted Gr-1+CD115+ MDSCs from tumor-bearing mice were stimulated with IFN-γ in the absence or presence of GA, SP600125, or both. Twenty-four (24) hours after stimulation, culture supernatants were collected and the concentrations of IL-10, TGF-β, IL-6, and IL-23 were determined by ELISA (R&D Systems®). GA or SP600125 alone was capable of enhancing the secretion of IL-10 and TGF-β while decreasing IL-6 and IL-23 production by MDSCs in vitro (FIG. 3A).

[9] = tested on: IRF-3; details: MDSCs stimulated with LPS for 2 hours, FIG. 9C
Source text: Actin was used as a loading control. Primary antibodies were anti-NFκB, anti-phospho-IRF3 (pIRF3), and anti-β-actin (Cell Signaling Technologies, Danvers, Mass.).

L-glutamic acid polymer with L-alanine, L-lysine and L-tyrosine, acetate (salt) [GA]
percentage of CD4+CD25+Foxp3+ Treg cells in the co-culture with normal monocytes [1]: slightly increased | levels of TLR 2, 3, and 4 expression in MDSCs [2]: significant reduction | MDSC-mediated Treg cell induction in the absence of TRIF [3]: cannot enhance | IFN-γ production induced by LPS in MDSCs ([4]; 100 ng/mL LPS, 30 hours, ELISA): significantly reduced | IL-10 production by MDSCs ([4]; with LPS): favors IL-10 production | Treg cell induction by MDSCs without LPS ([5]; CD4+ HA TCR splenocytes): 11.1% | Treg cell induction by MDSCs with LPS ([5]; LPS 100 ng/mL): 5.31% | Treg cell inducing activity of treated MDSCs on day 4 [6]: still maintained a significant Treg cell inducing activity | efficacy for treating IBD [7]: failed to treat IBD | IL-6 production by MDSCs [8]: decreasing | IL-23 production by MDSCs [8]: decreasing | secretion of IL-10 by MDSCs [8]: enhancing | secretion of TGF-β by MDSCs [8]: enhancing | IRF-3 activation induced by LPS [9]: inhibition
